Measured values as given in PubChem BioAssay AID328 (DTP/NCI, 2004).
Where “and” joins values, the source holds several entries; their conditions need not be identical. Equal entries are not always repeated. Toxic doses and inconclusive results are not listed.

Test system: BDF1 mice, P388 leukemia ip, median survival T/C
Experiment: NCI In Vivo Anticancer Drug Screen. Data for tumor model P388 Leukemia (intraperitoneal) in B6D2F1 (BDF1) mice
Details: endpoint: median survival time, higher = longer survival
In short: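 In tumour-bearing mice, survival after compound treatment is set against the vehicle group and given as a quotient.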

[1] = dose: 12.5 mg/kg/injection, schedule: Q04DX003 (ip), vehicle: water
[2] = dose: 50.0 mg/kg/injection, schedule: Q04DX003 (ip), vehicle: saline
[3] = dose: 25.0 mg/kg/injection, schedule: Q04DX003 (ip), vehicle: saline
[4] = dose: 100.0 mg/kg/injection, schedule: Q04DX003 (ip), vehicle: saline
[5] = dose: 200.0 mg/kg/injection, schedule: Q04DX003 (ip), vehicle: saline

C[n+]1cc2ccccc2c2ccccc21
T/C (dose: 12.5 mg/kg/injection, schedule: Q01DX009 (ip), vehicle: water): 95 % of control and 109 % of control
T/C [1]: 105 % of control
T/C (dose: 15.0 mg/kg/injection, schedule: Q01DX009 (ip), vehicle: water): 108 % of control
T/C (dose: 25.0 mg/kg/injection, schedule: Q01DX009 (ip), vehicle: water): 101 % of control and 115 % of control
T/C (dose: 25.0 mg/kg/injection, schedule: Q04DX003 (ip), vehicle: water): 114 % of control

CCOC(=O)C(CCCO)C(=O)OCC
T/C (dose: 50.0 mg/kg/injection, schedule: Q01DX001 (ip), vehicle: saline with Tween-80): 115 % of control
T/C (dose: 100.0 mg/kg/injection, schedule: Q01DX001 (ip), vehicle: saline with Tween-80): 100 % of control
T/C (dose: 200.0 mg/kg/injection, schedule: Q01DX001 (ip), vehicle: saline with Tween-80): 110 % of control

O=C1OCCC1C(=O)C(O)(C(F)(F)F)C(F)(F)F (configuration not stated)
T/C (dose: 100.0 mg/kg/injection, schedule: Q01DX001 (ip), vehicle: other): 90 % of control
T/C (dose: 200.0 mg/kg/injection, schedule: Q01DX001 (ip), vehicle: other): 90 % of control
T/C (dose: 400.0 mg/kg/injection, schedule: Q01DX001 (ip), vehicle: other): 100 % of control

N#Cc1c(NN)n(C2OC(CO)C(O)C2O)c2ncnc(N)c12 (configuration not stated)
T/C [2]: 100 % of control
T/C (dose: 83.0 mg/kg/injection, schedule: Q04DX003 (ip), vehicle: saline): 100 % of control

CCOC(=O)c1nc2nc(Cl)c(Cl)nc2[nH]1
T/C (dose: 4.0 mg/kg/injection, schedule: Q01DX009 (ip), vehicle: saline): 90 % of control
T/C [3]: 93 % of control
T/C (dose: 32.0 mg/kg/injection, schedule: Q01DX009 (ip), vehicle: saline): 89 % of control
T/C [2]: 98 % of control
T/C [4]: 102 % of control
T/C [5]: 93 % of control

CC(=O)[C@]1(O)Cc2c(O)c3c(c(O)c2[C@@H](OC2CC(N)C(O)C(C)O2)C1)C(=O)c1c(OC(C)C)cccc1C3=O (some centres not stated)
T/C (dose: 6.25 mg/kg/injection, schedule: Q04DX003 (ip), vehicle: water): 118 % of control
T/C [1]: 162 % of control
T/C (dose: 50.0 mg/kg/injection, schedule: Q04DX003 (ip), vehicle: water): 89 % of control

COc1cc(NS(C)(=O)=O)ccc1NS(C)(=O)=O
T/C (dose: 100.0 mg/kg/injection, schedule: Q01DX009 (ip), vehicle: Klucel (hydroxypropylcellulose) (HPC)): 87 % of control
T/C (dose: 200.0 mg/kg/injection, schedule: Q01DX009 (ip), vehicle: Klucel (hydroxypropylcellulose) (HPC)): 87 % of control
T/C (dose: 400.0 mg/kg/injection, schedule: Q01DX009 (ip), vehicle: Klucel (hydroxypropylcellulose) (HPC)): 87 % of control

Clc1ccc2c(c1)-c1ccccc1C1=NCCN12
T/C (dose: 2.5 mg/kg/injection, schedule: Q04DX003 (ip), vehicle: Klucel (hydroxypropylcellulose) (HPC)): 110 % of control
T/C (dose: 4.4 mg/kg/injection, schedule: Q04DX003 (ip), vehicle: Klucel (hydroxypropylcellulose) (HPC)): 100 % of control
T/C (dose: 5.0 mg/kg/injection, schedule: Q01DX009 (ip), vehicle: Klucel (hydroxypropylcellulose) (HPC)): 95 % of control
T/C (dose: 5.0 mg/kg/injection, schedule: Q04DX003 (ip), vehicle: Klucel (hydroxypropylcellulose) (HPC)): 100 % of control
T/C (dose: 6.6 mg/kg/injection, schedule: Q04DX003 (ip), vehicle: Klucel (hydroxypropylcellulose) (HPC)): 91 % of control
T/C (dose: 10.0 mg/kg/injection, schedule: Q01DX009 (ip), vehicle: Klucel (hydroxypropylcellulose) (HPC)): 113 % of control
T/C (dose: 10.0 mg/kg/injection, schedule: Q04DX003 (ip), vehicle: Klucel (hydroxypropylcellulose) (HPC)): 95 % of control
T/C (dose: 15.0 mg/kg/injection, schedule: Q04DX003 (ip), vehicle: Klucel (hydroxypropylcellulose) (HPC)): 91 % of control
T/C (dose: 20.0 mg/kg/injection, schedule: Q01DX009 (ip), vehicle: Klucel (hydroxypropylcellulose) (HPC)): 113 % of control

CC(=O)OCc1ccc(-n2c(C(F)(F)F)nc3nc(Cl)c(Cl)nc32)o1
T/C (dose: 50.0 mg/kg/injection, schedule: Q01DX009 (ip), vehicle: saline): 100 % of control
T/C [2]: 108 % of control
T/C (dose: 100.0 mg/kg/injection, schedule: Q01DX009 (ip), vehicle: saline): 107 % of control
T/C [4]: 103 % of control
T/C [5]: 101 % of control
T/C (dose: 400.0 mg/kg/injection, schedule: Q04DX003 (ip), vehicle: saline): 100 % of control

c1c2c(cc3c1OCO3)CC1CCCN1CC2 (configuration not stated)
T/C (dose: 0.5 mg/kg/injection, schedule: Q01DX009 (ip), vehicle: saline with Tween-80): 108 % of control
T/C (dose: 1.0 mg/kg/injection, schedule: Q01DX009 (ip), vehicle: saline with Tween-80): 100 % of control
T/C (dose: 4.0 mg/kg/injection, schedule: Q01DX009 (ip), vehicle: saline with Tween-80): 108 % of control
T/C (dose: 8.0 mg/kg/injection, schedule: Q01DX009 (ip), vehicle: saline with Tween-80): 108 % of control

CC(C)=CCC/C(C)=C/Cn1cnc2c(ncn2C2OC(CO)C(O)C2O)c1=O (configuration not stated)
T/C (dose: 12.5 mg/kg/injection, schedule: Q04DX003 (ip), vehicle: saline): 110 % of control
T/C [3]: 105 % of control
T/C [2]: 114 % of control
